Assay results as given in patent US7868177B2, “Multi-cyclic compounds and method of use” (Amgen Inc., priority 2006, dated 2011).

Target: T1, AuroraA-TPX2 (Homo sapiens, UniProt O14965)
T1 construct: 20 μL of AuroraA-TPX2 KD GST for a final volume of 41 μL; GST
T1 sequence (O14965 133-383 limits assumed): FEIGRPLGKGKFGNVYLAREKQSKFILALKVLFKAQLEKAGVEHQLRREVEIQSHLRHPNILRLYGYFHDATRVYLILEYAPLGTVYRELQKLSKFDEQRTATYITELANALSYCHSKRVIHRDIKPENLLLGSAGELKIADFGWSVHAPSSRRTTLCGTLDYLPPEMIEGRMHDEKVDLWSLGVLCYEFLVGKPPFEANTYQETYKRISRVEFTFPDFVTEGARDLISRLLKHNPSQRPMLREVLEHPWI
T1 sequence (Q9ULW0 1-43 partner limits assumed): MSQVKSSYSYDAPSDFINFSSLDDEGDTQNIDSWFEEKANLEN
Experiment: AuroraA-TPX2 HTRF kinase assay (Aurora kinase A HTRF assay)
Assay type: biochemical
Procedure: AuroraA-TPX2-Homogeneous Time Resolved Fluorescent (HTRF) Kinase Assay:
The AuroraA HTRF assay begins with AuroraA in the presence of ATP phosphorylating the biotinylated peptide PLK. The reaction incubates for about 120 min. Detection reagents are added to quench the reaction. These agents stop the reaction by diluting out the enzyme and chelating the metals due to the presence of EDTA. After addition, the assay is incubated overnight to allow the detection reagents to equilibrate.
The AuroraA HTRF assay comprises 1 μL of compound in 100% DMSO, 20 μL of ATP and biotinylated PLK, and 20 μL of AuroraA-TPX2 KD GST for a final volume of 41 μL. The final concentration of PLK is about 1 μM. […] Buffer conditions are as follows: 60 mM HEPES pH 7.5, 25 mM NaCl, 10 mM MgCl, 2 mM DTT, 0.05% BSA.
The assay is quenched and stopped with 160 μL of detection reagent. Detection reagents are as follows: Buffer made of 50 mM Tris, pH 7.5, 100 mM NaCl, 3 mM EDTA, 0.05% BSA, 0.1% Tween20. Added to this buffer prior to reading is Steptavidin allophycocyanin (SA-APC) at a final conc in the assay of 0.0005 mg/mL, and europilated anti-phosphoPLK Ab (Eu-anti-PLK) at a final conc of 0.02 nM.
The assay plate is read in either a Discovery or a RubyStar. The eu-anti-PLK is excited at 320 nm and emits at 615 nm to excite the SA-APC which in turn emits at 655 nm. The ratio of SA-APC at 655 nm (excited due to close proximity to the Eu-anti-PLK because of phosphorylation of the peptide) to free Eu-anti-PLK at 615 nm will give substrate phosphorylation.

Row | SMILES | IC50 [µM]
1 | CN1CCCC1CCNc1nccc(-c2cccnc2Oc2ccc(Nc3nc4ccccc4[nH]3)c3ccccc23)n1 (stereo not drawn) [Example 46, N-(4-((3-(2-((2-(1-methyl-2-pyrrolidinyl)ethyl)amino)-4-pyrimidinyl)-2-pyridinyl)oxy)-1-naphthalenyl)-1H-benzimidazol-2-amine] | ≤ 5
2 | Cn1cc(-c2ccccc2)nc1Nc1ccc(Oc2ncccc2-c2ccnc(N)n2)cc1 [Example 115, 4-(2-((4-((1-methyl-4-phenyl-1H-imidazol-2-yl)amino)phenyl)oxy)-3-pyridinyl)-2-pyrimidinamine] | ≤ 5
3 | Cc1ccc2nc(Nc3ccc(Oc4ncccc4-c4ccncn4)c(C)c3)oc2c1 [Example 48, 6-methyl-N-(3-methyl-4-((3-(4-pyrimidinyl)-2-pyridinyl)oxy)phenyl)-1,3-benzoxazol-2-amine] | ≤ 5
